{"source": "patent US10925867B2", "about": "“Immunotherapeutic dosing regimens comprising pomalidomide and an anti-CS1 antibody for treating cancer” (Bristol-Myers Squibb Company, priority 2015, dated 2021)", "key": {"[1]": {"system": "multiple myeloma", "conditions": "cited from earlier work"}, "[2]": {"system": "multiple myeloma", "conditions": "treated multiple myeloma patients; cited from earlier work"}, "[3]": {"system": "OPM2 xenograft", "experimental": "FIGS. 4A-B. Study #2 (OPM2-16), Antitumor Activity, Elotuzumab Efficacy in Combination with Pomalidomide and Dexamethasone in OPM2 Multiple Myeloma Xenograft. Mice with established OPM2 xenograft tumors were randomized into 2 groups with 8 mice per group and were administered one of the following sets of regimens: (A) Control group was left untreated (filled circles), elotuzumab (0.5 mg/kg, twice weekly IP for 6 doses starting d12, open circles), dexamethasone (5 mg/kg, daily IP for 7 doses starting on d12, open triangles), elotuzumab (0.5 mg/kg, twice weekly IP for 8 doses starting d12) plus dexamethasone combination (filled triangles), pomalidomide (5 mg/kg, daily for 5 days orally starting on d12 and then again for 5 days on d19) plus dexamethasone combination (dashes); or (B) Control group was left untreated (filled circles), elotuzumab (0.5 mg/kg, twice weekly IP for 6 doses starting d12, open circles), pomalidomide (5 mg/kg, daily for 5 days orally starting on d12 and then again for 5 days on d19, open squares), elotuzumab (0.5 mg/kg, twice weekly IP for 8 doses starting d12) plus pomalidomide combination (filled squares), elotuzumab (0.5 mg/kg, twice weekly IP for 8 doses starting d12) plus pomalidomide plus dexamethasone combination (x's). The data are presented as means+/−standard deviation.\n(§1) FIGS. 5A-H. Study #2 (OPM2-16), Anti Tumor Activity of Elotuzumab, Pomalidomide, and Dexamethasone as Single Agent and Combination Treatment in OPM2 Multiple Myeloma Xenograft tumor model. Mice with established OPM2 xenograft tumors were randomized into groups with 8 mice per group and were administered one of the following regimens: (A): untreated (control); (B): elotuzumab; (C): pomalidomide; (D): dexamethasone; (E): elotuzumab plus pomalidomide; (F): elotuzumab plus dexamethasone; (G): pomalidomide plus dexamethasone; or (H): elotuzumab plus pomalidomide plus dexamethasone. Data represent tumor weight measured in individual animals. Dosing route and regimen are described in FIG. 4 and Example 1.\n(§2) Animals: All mice were obtained from Taconic Biosciences (Germantown, N.Y.), and maintained in ammonia-free environment in a defined and pathogen-free colony. All animal procedures were approved by the Bristol-Myers Squibb (BMS) Institutional Animal Care and Use Committee. The animal care and use program at BMS has been fully accredited by the Association for Assessment and Accreditation of Laboratory Animal Care International (AAALAC).\n(§3) Animal Models: The human tumor xenograft OPM2 was grown in IcrTac scid mice (ICRPrkdcscid). Treated animals were checked daily for treatment related toxicity/mortality. Each group of animals was weighed before the initiation of treatment (Wt1) and then weighed again following the last treatment dose (Wt2). The difference in body weight (Wt2-Wt1) provides a measure of treatment-related toxicity. Additional weights were recorded at each measurement date to monitor toxicity.\n(§4) Tumor response was determined by measurement of tumors with a caliper twice a week, until the tumors reached a predetermined “target” size of 1 gm. Tumor weights (mg) were estimated from the formula: Tumor weight=(length×width2)/2.\n(§5) Tumor response end-point was expressed in terms of tumor cell kill and tumor growth inhibition. Tumor growth delay was defined as the difference in time (days) required for the treated tumors (T) to reach a predetermined target size compared to those in the control group (C). For this purpose tumor weight of a group was expressed as […] tumor weight (MTW).\n(§6) Tumor cell kill was expressed in terms of log cell kill (LCK), represented by the equation LCK=[…] where tumor volume doubling time (TVDT) was first calculated with the formula: TVDT=Median time (days) for control tumor weight to reach target size−Median time (days) for control tumor weight to reach half the target size."}, "[4]": {"system": "OPM2 xenograft", "experimental": "Mice with established OPM2 xenograft tumors were randomized into 2 groups with 8 mice per group and were administered one of the following sets of regimens: (A) Control group was left untreated (filled circles), elotuzumab (0.5 mg/kg, twice weekly IP for 7 doses starting d16, open circles), dexamethasone (5 mg/kg, daily IP for 7 doses starting on d16, open triangles), elotuzumab plus dexamethasone combination (filled triangles), pomalidomide (5 mg/kg, daily for 5 days orally starting on d16 and then again for 5 days on d23) plus dexamethasone combination (dashes); or (B) Control group was left untreated (filled circles), elotuzumab (0.5 mg/kg, twice weekly IP for 7 doses starting d16, open circles), pomalidomide (5 mg/kg, daily for 5 days orally starting on d16 and then again for 5 days on d23, open squares), elotuzumab (0.5 mg/kg, twice weekly IP for 10 doses starting d16) plus pomalidomide combination (filled squares), elotuzumab (10 doses) plus pomalidomide plus dexamethasone combination (x's). The data are presented as means+/−standard deviation.\nas §1, with “Mice” for “FIGS. 5A-H. Study #2 (OPM2-16), Anti Tumor Activity of Elotuzumab, Pomalidomide, and Dexamethasone as Single Agent and Combination Treatment in OPM2 Multiple Myeloma Xenograft tumor model. Mice”, “2” for “4”\nas §2, §3, §4, §5, §6", "remark": "listed apart in the source"}, "[5]": {"system": "refractory or relapsed and refractory MM", "conditions": "MM-003; cited from earlier work"}, "[6]": {"conditions": "in combination with dexamethasone as induction therapy before ASCT"}, "[7]": {"conditions": "three-drug induction: bortezomib-dexamethasone plus the named drug"}, "[8]": {"conditions": "Study #2, ELO 0.5, POM 5, DEX 5 mg/kg, mice of 8"}, "[9]": {"conditions": "Study #1, ELO 0.5, POM 5, DEX 5 mg/kg, mice of 8"}}, "note": "Where two headings read alike, the source gives them in different places.", "data": [{"smiles": "O=C1CCC(N2C(=O)c3ccccc3C2=O)C(=O)N1", "note": "(stereo not drawn) [thalidomide]", "values": [{"measurement": "rates of nearly CR", "setting": "[1]; [6]", "result": 8, "unit": "%"}, {"measurement": "rates of nearly CR", "setting": "[1]; [7]", "result": 32, "unit": "%"}]}, {"smiles": "Nc1cccc2c1CN(C1CCC(=O)NC1=O)C2=O", "note": "(stereo not drawn) [lenalidomide]", "values": [{"measurement": "rates of nearly CR", "setting": "[1]; [6]", "result": 15, "unit": "%"}, {"measurement": "rates of nearly CR", "setting": "[1]; [7]", "result": 57, "unit": "%"}, {"measurement": "response rate", "setting": "[2]", "result": "40%-50%"}]}, {"smiles": "O=P1(N(CCCl)CCCl)NCCCO1", "note": "(stereo not drawn) [cyclophosphamide]", "values": [{"measurement": "rates of nearly CR", "setting": "[1]; [7]", "result": 39, "unit": "%"}]}, {"smiles": "C[C@@H]1C[C@H]2[C@@H]3CCC4=CC(=O)C=C[C@]4(C)[C@@]3(F)[C@@H](O)C[C@]2(C)[C@@]1(O)C(=O)CO", "note": "[Dexamethasone]", "values": [{"measurement": "Median Days to Target Size", "setting": "[3]; Study #2, ELO 0.5 mg/kg IP 2QW from d12, POM 5 mg/kg PO QD × 5 d12, 19, DEX 5 mg/kg IP QD × 7 from d12, target size 1 gm", "result": 25.7, "unit": "days"}, {"measurement": "LCK", "setting": "[3]; Study #2, ELO 0.5, POM 5, DEX 5 mg/kg", "result": 0.63}, {"measurement": "CR (complete tumor regressions)", "setting": "[3]; [8]", "result": "0/8"}, {"measurement": "PR (partial tumor regressions)", "setting": "[3]; [8]", "result": "0/8"}, {"measurement": "TGI", "setting": "[3]; Study #2, ELO 0.5, POM 5, DEX 5 mg/kg, versus untreated mice", "result": 62.8, "unit": "%"}, {"measurement": "Max % Weight Loss", "setting": "[3]; mouse, in vivo", "result": "−9.0", "unit": "%"}, {"measurement": "Median Days to Target Size", "setting": "[4]; Study #1, ELO 0.5 mg/kg IP 2QW from d16, POM 5 mg/kg PO QD × 5 d16, 23, DEX 5 mg/kg IP QD × 7 from d16, target size 1 gm", "result": 28.0, "unit": "days"}, {"measurement": "LCK", "setting": "[4]; Study #1, ELO 0.5, POM 5, DEX 5 mg/kg", "result": 0.14}, {"measurement": "CR (complete tumor regressions)", "setting": "[4]; [9]", "result": "0/8"}, {"measurement": "PR (partial tumor regressions)", "setting": "[4]; [9]", "result": "0/8"}, {"measurement": "TGI", "setting": "[4]; Study #1, ELO 0.5, POM 5, DEX 5 mg/kg, versus untreated mice", "result": 50.4, "unit": "%"}, {"measurement": "Max % Weight Loss", "setting": "[4]; mouse, in vivo", "result": "−5.7", "unit": "%"}, {"measurement": "grade 3-4 anemia", "setting": "[5]", "result": 37, "unit": "%"}, {"measurement": "grade 3-4 bone pain", "setting": "[5]", "result": 5, "unit": "%"}, {"measurement": "grade 3-4 fatigue", "setting": "[5]", "result": 6, "unit": "%"}, {"measurement": "grade 3-4 neutropenia", "setting": "[5]", "result": 16, "unit": "%"}, {"measurement": "grade 3-4 pneumonia", "setting": "[5]", "result": 8, "unit": "%"}, {"measurement": "grade 3-4 thrombocytopenia", "setting": "[5]", "result": 26, "unit": "%"}]}, {"smiles": "COc1cccc2c1C(=O)c1c(O)c3c(c(O)c1C2=O)C[C@@](O)(C(=O)CO)C[C@@H]3O[C@H]1C[C@H](N)[C@H](O)[C@H](C)O1", "note": "[doxorubicin]", "values": [{"measurement": "rates of nearly CR", "setting": "[1]; [7]", "result": 7, "unit": "%"}]}, {"smiles": "CC(C)C[C@H](NC(=O)[C@H](Cc1ccccc1)NC(=O)c1cnccn1)B(O)O", "note": "[bortezomib]", "values": [{"measurement": "rates of nearly CR", "setting": "[1]; [6]", "result": 16, "unit": "%"}, {"measurement": "response rate", "setting": "[2]", "result": 38, "unit": "%"}]}]}
